Conditions: Liquid, Vibrating tube method

CCn1cc[n+](C)c1.CCn1cc[n+](C)c1.[Co+2].[N-]=C=S.[N-]=C=S.[N-]=C=S.[N-]=C=S [bis(1-ethyl-3-methylimidazolium) tetrathiocyanatocobaltate]
mass density [kg/m3]
Conditions	283.1 K	293.1 K	303.1 K	313.2 K	323.2 K	333.2 K	343.1 K	353.1 K	363.1 K
100 kPa	1286.1	1278.7	1271.5	1264.4	1257.3	1250.3	1243.3	1236.4	1229.5
1000 kPa	1286.5	1279.1	1272	1264.9	1257.8	1250.7	1243.7	1236.9	1230.1
2000 kPa	1287	1279.6	1272.5	1265.3	1258.4	1251.3	1244.3	1237.5	1230.6
5000 kPa	1288.4	1281.1	1273.9	1266.8	1259.9	1253	1246	1239.2	1232.4
7000 kPa	1289.3	1282.1	1274.9	1267.9	1260.9	1253.9	1247	1240.3	1233.5
10000 kPa	1290.6	1283.4	1276.3	1269.4	1262.5	1255.3	1248.6	1241.7	1235.1
15000 kPa	1292.8	1285.7	1278.6	1271.7	1265	1257.9	1251.3	1244.3	1237.7
20000 kPa	1295	1287.9	1281	1274.1	1267.3	1260.1	1253.7	1246.9	1240.4
25000 kPa	1297.1	1290	1283.1	1276.3	1269.6	1262.7	1256	1249.4	1243
30000 kPa	1299.1	1292.1	1285.4	1278.7	1271.9	1265.1	1258.3	1251.9	1245.6
35000 kPa	1301.1	1294.3	1287.6	1280.9	1274.1	1267.5	1260.6	1254.3	1248.2
40000 kPa	1303.2	1296.3	1289.6	1282.9	1276.4	1269.5	1263	1256.7	1250.5
45000 kPa	1305.2	1298.4	1291.7	1285.1	1278.6	1272	1265.5	1259.1	1252.7
50000 kPa	1307.2	1300.5	1294	1287.4	1280.8	1274.2	1267.7	1261.2	1254.9
55000 kPa	1309	1302.5	1295.9	1289.5	1282.9	1276.4	1269.6	1263.6	1257.2
60000 kPa	1311	1304.3	1297.9	1291.4	1285	1278.4	1271.8	1265.7	1259.4
65000 kPa	1312.9	1306.3	1299.7	1293.3	1287	1280.4	1274.1	1267.7	1261.6
70000 kPa	1314.8	1308.3	1301.7	1295.3	1288.9	1282.4	1275.9	1269.9	1263.7
75000 kPa	1316.6	1310.2	1303.7	1297.2	1290.9	1284.6	1277.9	1272	1265.8
80000 kPa	1318.3	1312.2	1305.4	1299	1292.8	1286.5	1280.2	1274.2	1267.8
85000 kPa	1320	1313.9	1307.4	1301.1	1294.7	1288.6	1282.4	1276.1	1270.1
90000 kPa	1321.9	1315.6	1309.4	1302.9	1296.8	1290.4	1284.3	1278.2	1272.1
95000 kPa	1323.8	1317.5	1311	1304.8	1298.7	1292.5	1286.1	1280.2	1273.8

CCCCn1cc[n+](C)c1.CCCCn1cc[n+](C)c1.[Co+2].[N-]=C=S.[N-]=C=S.[N-]=C=S.[N-]=C=S [bis(1-butyl-3-methylimidazolium) tetrathiocyanatocobaltate]
mass density [kg/m3]
Conditions	283.16 K	293.13 K	303.17 K	313.17 K	323.18 K	333.15 K	343.14 K	353.13 K	363.14 K
100 kPa	1233.1	1226.4	1219.6	1212.6	1205.8	1199	1192.4	1185.8	1179.2
1000 kPa	1233.5	1226.9	1220.1	1213.2	1206.3	1199.5	1192.9	1186.3	1179.8
2000 kPa	1233.9	1227.4	1220.5	1213.6	1206.8	1200.1	1193.5	1186.9	1180.3
5000 kPa	1235.3	1228.9	1222.1	1215.2	1208.3	1201.8	1195.1	1188.6	1182
7000 kPa	1236.2	1229.7	1222.9	1216.2	1209.4	1202.7	1196.2	1189.6	1183.2
10000 kPa	1237.6	1231.1	1224.3	1217.7	1210.8	1204.2	1197.7	1191.2	1184.8
15000 kPa	1239.8	1233.5	1226.8	1220.1	1213.3	1206.7	1200.4	1193.8	1187.5
20000 kPa	1241.9	1235.6	1229.1	1222.5	1215.8	1209.2	1202.8	1196.5	1190
25000 kPa	1244	1237.6	1231.3	1224.8	1218.1	1211.6	1205.1	1198.9	1192.6
30000 kPa	1245.9	1239.7	1233.5	1226.9	1220.5	1213.9	1207.5	1201.3	1195
35000 kPa	1248	1241.8	1235.6	1229.1	1222.8	1216.2	1209.8	1203.6	1197.4
40000 kPa	1250.1	1243.8	1237.7	1231.3	1224.9	1218.3	1212.2	1205.9	1199.9
45000 kPa	1251.9	1245.9	1239.7	1233.3	1227	1220.5	1214.4	1208.1	1202.2
50000 kPa	1253.9	1248	1241.7	1235.3	1229.1	1222.8	1216.4	1210.5	1204.5
55000 kPa	1255.8	1250	1243.6	1237.4	1231.1	1224.9	1218.6	1212.8	1206.7
60000 kPa	1257.6	1251.9	1245.6	1239.4	1233.2	1227	1220.7	1215.1	1208.9
65000 kPa	1259.4	1253.8	1247.5	1241.3	1235.1	1229.1	1222.9	1216.9	1211.2
70000 kPa	1261.3	1255.5	1249.4	1243.4	1237.2	1231	1225	1219	1213.2
75000 kPa	1263.2	1257.4	1251.3	1245.2	1239.2	1233	1227	1221.1	1215.3
80000 kPa	1264.9	1259.1	1253.1	1247	1241	1235.1	1229.1	1223.1	1217.3
85000 kPa	1266.6	1261	1254.8	1248.9	1242.9	1236.9	1231	1225.2	1219.3
90000 kPa	1268.4	1262.6	1256.7	1250.6	1244.8	1238.9	1232.8	1227.1	1221.4
95000 kPa	1270.1	1264.4	1258.5	1252.5	1246.5	1240.7	1234.8	1229.1	1223.3

— the NIST ThermoML archive (doi:10.1021/acs.jced.9b00334)
